Tested on: KRAS-mutant PDC multicell tumor spheroid viability
Assay: Anticancer human tumor 521955-158-R2-J5-PDC patient-derived pancreatic carcinoma cell line growth inhibition [KRAS2]
Settings: for viability, T/C: stronger effect = lower value
Procedure, shortened: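 KRAS-mutant tumor cells were grown as spheroids with HUVEC endothelial cells and human MSCs as stroma. Targeted agents were tested alone and with KRAS pathway inhibitors. Doses started at or near clinical Cmax, or 10 microM, descending half-log.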

[1] = curve of first compound, second compound 0.1 µM
[2] = curve of first compound, second compound 0.316 µM
[3] = curve of first compound, second compound 1 µM
[4] = curve of first compound, second compound 3.16 µM
[5] = curve of first compound, second compound 10 µM
[6] = second compound 0.1 µM, first compound 0.0316 µM
[7] = second compound 0.1 µM, first compound 0.1 µM
[8] = second compound 0.1 µM, first compound 0.316 µM
[9] = second compound 0.1 µM, first compound 1 µM
[10] = second compound 0.1 µM, first compound 3.16 µM
[11] = second compound 0.1 µM, first compound 10 µM
[12] = second compound 0.316 µM, first compound 0.0316 µM
[13] = second compound 0.316 µM, first compound 0.1 µM
[14] = second compound 0.316 µM, first compound 0.316 µM
[15] = second compound 0.316 µM, first compound 1 µM
[16] = second compound 0.316 µM, first compound 3.16 µM
[17] = second compound 0.316 µM, first compound 10 µM
[18] = second compound 1 µM, first compound 0.0316 µM
[19] = second compound 1 µM, first compound 0.1 µM
[20] = second compound 1 µM, first compound 0.316 µM
[21] = second compound 1 µM, first compound 1 µM
[22] = second compound 1 µM, first compound 3.16 µM
[23] = second compound 1 µM, first compound 10 µM
[24] = second compound 3.16 µM, first compound 0.0316 µM
[25] = second compound 3.16 µM, first compound 0.1 µM
[26] = second compound 3.16 µM, first compound 0.316 µM
[27] = second compound 3.16 µM, first compound 1 µM
[28] = second compound 3.16 µM, first compound 3.16 µM
[29] = second compound 3.16 µM, first compound 10 µM
[30] = second compound 10 µM, first compound 0.0316 µM
[31] = second compound 10 µM, first compound 0.1 µM
[32] = second compound 10 µM, first compound 0.316 µM
[33] = second compound 10 µM, first compound 1 µM
[34] = second compound 10 µM, first compound 3.16 µM
[35] = second compound 10 µM, first compound 10 µM
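Note: viability read after seven days of drug exposure.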

## CC1(C)CCC(CN2CCN(c3ccc(C(=O)NS(=O)(=O)c4ccc(NCC5CCOCC5)c([N+](=O)[O-])c4)c(Oc4cnc5[nH]ccc5c4)c3)CC2)=C(c2ccc(Cl)cc2)C1 + CNCc1ccccc1-c1csc(C(C)Nc2nc(C)nc3cc(OC)c(OC)cc23)c1
[1]
  IC50: 6160 nM
[2]
  IC50: 5210 nM
[3]
  IC50: 4130 nM
[4]
  IC50: < 31.6 nM
[5]
  IC50: < 31.6 nM
[6]
  viability, T/C: 98.8%
[7]
  viability, T/C: 98.8%
[8]
  viability, T/C: 97.2%
[9]
  viability, T/C: 102%
[10]
  viability, T/C: 104%
[11]
  viability, T/C: 13.4%
[12]
  viability, T/C: 90.2%
[13]
  viability, T/C: 94.1%
[14]
  viability, T/C: 93.4%
[15]
  viability, T/C: 89.2%
[16]
  viability, T/C: 80.8%
[17]
  viability, T/C: 9.94%
[18]
  viability, T/C: 91.1%
[19]
  viability, T/C: 104%
[20]
  viability, T/C: 103%
[21]
  viability, T/C: 84.5%
[22]
  viability, T/C: 64.2%
[23]
  viability, T/C: 5.98%
[24]
  viability, T/C: 0.76%
[25]
  viability, T/C: 3.72%
[26]
  viability, T/C: 43.5%
[27]
  viability, T/C: 1.04%
[28]
  viability, T/C: 1.54%
[29]
  viability, T/C: 0.73%
[30]
  viability, T/C: 0.3%
[31]
  viability, T/C: 0.27%
[32]
  viability, T/C: 0.23%
[33]
  viability, T/C: 0.22%
[34]
  viability, T/C: 0.67%
[35]
  viability, T/C: 0.32%

## Cn1nccc1Nc1nccc(-c2cc3c(s2)C(C)(C)N(CCN2CCOCC2)C3=O)n1 + CC1OCC2(CCN(c3cnc(Sc4ccnc(N)c4Cl)c(N)n3)CC2)C1N
[1]
  IC50: 493 nM
[2]
  IC50: 485 nM
[3]
  IC50: 490 nM
[4]
  IC50: 602 nM
[5]
  IC50: 427 nM
[6]
  viability, T/C: 94.1%
[7]
  viability, T/C: 70.9%
[8]
  viability, T/C: 58.5%
[9]
  viability, T/C: 41.5%
[10]
  viability, T/C: 25%
[11]
  viability, T/C: 19.6%
[12]
  viability, T/C: 69.9%
[13]
  viability, T/C: 62.1%
[14]
  viability, T/C: 58.4%
[15]
  viability, T/C: 38.5%
[16]
  viability, T/C: 25.4%
[17]
  viability, T/C: 15.6%
[18]
  viability, T/C: 73.6%
[19]
  viability, T/C: 66.9%
[20]
  viability, T/C: 57.5%
[21]
  viability, T/C: 38.7%
[22]
  viability, T/C: 24.7%
[23]
  viability, T/C: 15.9%
[24]
  viability, T/C: 71.4%
[25]
  viability, T/C: 63.1%
[26]
  viability, T/C: 63%
[27]
  viability, T/C: 40.4%
[28]
  viability, T/C: 23.3%
[29]
  viability, T/C: 18.4%
[30]
  viability, T/C: 50.9%
[31]
  viability, T/C: 56%
[32]
  viability, T/C: 57.9%
[33]
  viability, T/C: 36%
[34]
  viability, T/C: 27.3%
[35]
  viability, T/C: 18.2%

## CC1COCCN1c1cc(-c2ccnn2C)c2ccnc(-c3ccn[nH]3)c2n1 (stereo unspecified)
Compound 0.01 µM
  viability, T/C: 97.7% [middle of 5 runs]
Compound 0.1 µM
  viability, T/C: 12.3% [middle of 5 runs]
Compound 0.316 µM
  viability, T/C: 13.6% [middle of 5 runs]
Compound 1 µM
  viability, T/C: 21.9% [middle of 5 runs]
Compound 3.16 µM
  viability, T/C: 25.1% [middle of 5 runs]
Curve of compound
  IC50: 34.4 nM [middle of 5 runs]

## Cn1ncnc1[C@H]1c2n[nH]c(=O)c3cc(F)cc(c23)N[C@@H]1c1ccc(F)cc1 + CC1OCC2(CCN(c3cnc(Sc4ccnc(N)c4Cl)c(N)n3)CC2)C1N
[1]
  IC50: > 100 nM
[2]
  IC50: > 100 nM
[3]
  IC50: 3.6 nM
[4]
  IC50: < 0.316 nM
[5]
  IC50: < 0.316 nM
Second compound 0.1 µM, first compound 0.000316 µM
  viability, T/C: 72.5%
Second compound 0.1 µM, first compound 0.001 µM
  viability, T/C: 75%
Second compound 0.1 µM, first compound 0.00316 µM
  viability, T/C: 63.8%
Second compound 0.1 µM, first compound 0.01 µM
  viability, T/C: 63.6%
[6]
  viability, T/C: 63.7%
[7]
  viability, T/C: 53.3%
Second compound 0.316 µM, first compound 0.000316 µM
  viability, T/C: 58%
Second compound 0.316 µM, first compound 0.001 µM
  viability, T/C: 58.2%
Second compound 0.316 µM, first compound 0.00316 µM
  viability, T/C: 61.5%
Second compound 0.316 µM, first compound 0.01 µM
  viability, T/C: 55.6%
[12]
  viability, T/C: 46.6%
[13]
  viability, T/C: 55.1%
Second compound 1 µM, first compound 0.000316 µM
  viability, T/C: 56.7%
Second compound 1 µM, first compound 0.001 µM
  viability, T/C: 53.4%
Second compound 1 µM, first compound 0.00316 µM
  viability, T/C: 52.7%
Second compound 1 µM, first compound 0.01 µM
  viability, T/C: 45%
[18]
  viability, T/C: 45.4%
[19]
  viability, T/C: 51.4%
Second compound 3.16 µM, first compound 0.000316 µM
  viability, T/C: 46.4%
Second compound 3.16 µM, first compound 0.001 µM
  viability, T/C: 44.4%
Second compound 3.16 µM, first compound 0.00316 µM
  viability, T/C: 46.5%
Second compound 3.16 µM, first compound 0.01 µM
  viability, T/C: 44.5%
[24]
  viability, T/C: 41.9%
[25]
  viability, T/C: 41.8%
Second compound 10 µM, first compound 0.000316 µM
  viability, T/C: 43.6%
Second compound 10 µM, first compound 0.001 µM
  viability, T/C: 47.5%
Second compound 10 µM, first compound 0.00316 µM
  viability, T/C: 46.5%
Second compound 10 µM, first compound 0.01 µM
  viability, T/C: 38.5%
[30]
  viability, T/C: 37.9%
[31]
  viability, T/C: 40%

Source: PubChem BioAssay AID1963871 (Molecular Pharmacology Branch, DTP, NCI, 2024)
